Legend:
[1] = Ex vivo biodistribution in Balb/C mice with absorbed doses extrapolated to adult human male (OLINDA/EXM); details: mouse
Method: For ex vivo biodistribution and dosimetry evaluation, each BALB/C mouse was injected with 1.85 MBq of ^68Ga-NEB. At different time points after tracer injection (5 min, 30 min, 1 h, 3 h and 6 h, n=5/time point), the mice were sacrificed for tissue and organ collection, including blood, muscle, bone, liver, kidneys, spleen, pancreas, stomach, intestine, heart and lung. The samples were wet weighed, and measured for radioactivity in a γ-counter (Wallac 1470-002, Perkin-Elmer). The results were presented as percentage injected dose per gram of tissue (% ID/g). For each mouse, the radioactivity of the tissue samples was calibrated against a known aliquot of the injected tracer and normalized to a mean body mass of each group. Values were expressed as mean±SD (n=5/group). Determination of organ doses for a reference human was made using the OLINDA/EXM program (Vanderbilt University, Nashville, Tenn.).
In order to estimate the safe dose for clinical use, an ex vivo biodistribution study was performed in normal Balb/C mice. Absorbed doses for major organs and whole body were then extrapolated to adult human male of a body weight of 73.7 Kg using OLINDA EXM software. The kidneys received the highest absorbed doses (mean absorbed dose, 0.104˜0.135 mSv/MBq), resulting from abundant blood supply and tracer excretion through the renal urinary tract. The mean effective dose of ^68Ga-NEB was 0.0151 to 0.0159 mSv/MBq. With an injected dose of 185 MBq (5 mCi), the patient would be exposed to an effective radiation dose of 2.94 mSv, which is much lower than the dose limit of 20 mSv for the second risk category defined by the 2007 International Commission on Radiological Protection.

[2] = Multiple time point whole-body PET in healthy volunteers (SUV); assay type: in vivo, human
Method: (§1) This clinical study was approved by the Institute Review Board of Peking Union Medical College Hospital, Chinese Academy of Medical Sciences and Peking Union Medical College. Three healthy volunteers (2 males and 1 female) were enrolled with written informed consent to validate the safety of ^68Ga-NEB. No fasting, hydration or other specific preparation was requested on the day of imaging. Any unusual or adverse clinical symptoms were recorded on the day of imaging and during the 2-week follow-up period.
All three healthy volunteers underwent whole-body PET acquisitions (Biograph mCT PET/CT system, Siemens) at multiple time points after tracer injection. After the whole-body low-dose CT scan (140 kV, 35 mA, pitch 1:1, layer 5 mm, layer spacing 3 mm, matrix 512×512, FOV 70 cm), 111-148 MBq (3-4 mCi) of ^68Ga-NEB was injected intravenously. The whole body (from the top of skull to the middle of femur) of each volunteer was covered by 7 bed positions. The acquisition duration was 40 sec/bed position for the 5 min, 10 min and 15 min time points, 2 min/bed position for the 30 min, 45 min, 60 min, 75 min and 90 min time points.
(§2) A Siemens MMWP workstation was used for post-processing. Visual analysis was used to determine the general biodistribution and the temporal and inter-subject stability. The volume of interest (VOI) of 12 normal organs/tissues and concerned lesions were drawn on the serial images. The radioactivity concentration and standardized uptake value (SUV) in the VOIs were obtained through the software. Organ dosimetry was calculated by using organ-level internal dose assessment software. All quantitative data were expressed as mean±standard deviation.
From 5 to 90 min, no dramatic distribution change was observed, confirming the in vivo stability and long blood pool retention of ^68Ga-NEB (FIG. 28). Increased bladder accumulation was observed over time.

[3] = human, in vivo
Description: (§3) Dosimetry study confirmed the safety with acceptable absorbed doses by critical organs even with multiple injections for one patient.
as §2
The mean absorbed radiation doses based on multiple time point PET imaging of three volunteers were similar to those based on mouse biodistribution data. The major organs that received relatively high doses were kidneys, liver, spleen, and heart wall. The bladder wall also received high exposure due to renal excretion of the radioactivity (0.0683±0.0090 mSv/MBq). The whole body absorbed dose was 0.0151±0.0001 mSv/MBq with an effective dose of 0.0179±0.0003 mSv/MBq.

[4] = Safety observation in healthy volunteers and patients; assay type: in vivo, human
Description: as §3, §1
Vessel branches in and out of major organs and limbs can also be clearly identified.

SMILES: Cc1cc(-c2ccc(NC(=O)CN3CCN4CCN(CC3)CC(=O)[O][68GaH][O]C(=O)C4)c(C)c2)ccc1N=Nc1ccc2c(S(=O)(=O)O)cc(S(=O)(=O)O)c(N)c2c1O [^68Ga-NEB]
- Absorbed Dose, Adrenals ([1]; BALB/c): 0.0137~0.0141 mSv/MBq
- Absorbed Dose, Breasts ([1]; BALB/c): 0.00881~0.01 mSv/MBq
- Absorbed Dose, Gallbladder Wall ([1]; BALB/c): 0.0147~0.0149 mSv/MBq
- Absorbed Dose, Heart Wall ([1]; BALB/c): 0.0329~0.0453 mSv/MBq
- Absorbed Dose, LLI Wall ([1]; BALB/c): 0.0104~0.0119 mSv/MBq
- Absorbed Dose, Liver ([1]; BALB/c): 0.0444~0.0575 mSv/MBq
- Absorbed Dose, Lungs ([1]; BALB/c): 0.0197~0.0236 mSv/MBq
- Absorbed Dose, Muscle ([1]; BALB/c): 0.00946~0.011 mSv/MBq
- Absorbed Dose, Osteogenic Cells ([1]; BALB/c): 0.0133~0.0153 mSv/MBq
- Absorbed Dose, Ovaries ([1]; BALB/c): 0.0108~0.0122 mSv/MBq
- Absorbed Dose, Pancreas ([1]; BALB/c): 0.0625~0.0821 mSv/MBq
- Absorbed Dose, Red Marrow ([1]; BALB/c): 0.00882~0.00973 mSv/MBq
- Absorbed Dose, Skin ([1]; BALB/c): 0.00804~0.00925 mSv/MBq
- Absorbed Dose, Small Intestine ([1]; BALB/c): 0.0114~0.0128 mSv/MBq
- Absorbed Dose, Spleen ([1]; BALB/c): 0.0263~0.0317 mSv/MBq
- Absorbed Dose, Stomach Wall ([1]; BALB/c): 0.0117~0.0127 mSv/MBq
- Absorbed Dose, Testes ([1]; BALB/c): 0.00896~0.0103 mSv/MBq
- Absorbed Dose, Thymus ([1]; BALB/c): 0.0101~0.0112 mSv/MBq
- Absorbed Dose, Thyroid ([1]; BALB/c): 0.00936~0.0107 mSv/MBq
- Absorbed Dose, Total Body ([1]; BALB/c): 0.0146~0.0146 mSv/MBq
- Absorbed Dose, ULI Wall ([1]; BALB/c): 0.0115~0.0128 mSv/MBq
- Absorbed Dose, Urinary Bladder Wall ([1]; BALB/c): 0.0102~0.0117 mSv/MBq
- Absorbed Dose, Uterus ([1]; BALB/c): 0.0108~0.0123 mSv/MBq
- Effective Dose Equivalent ([1]; BALB/c): 0.0251~0.0297 mSv/MBq
- effective radiation dose to the patient [1]: 2.94 mSv
- average standardized uptake value, Blood ([2]; 5 min after i.v.): 7.97 ± 0.15
- average standardized uptake value, Bone ([2]; 5 min after i.v.): 2.10 ± 0.26
- average standardized uptake value, Kidneys ([2]; 5 min after i.v.): 4.40 ± 0.26
- average standardized uptake value, Liver ([2]; 5 min after i.v.): 3.80 ± 0.44
- average standardized uptake value, Lung ([2]; 5 min after i.v.): 1.53 ± 0.15
- average standardized uptake value, Muscle ([2]; 5 min after i.v.): 0.53 ± 0.21
- average standardized uptake value, Pancreas ([2]; 5 min after i.v.): 2.13 ± 0.40
- average standardized uptake value, S. Intestine ([2]; 5 min after i.v.): 1.73 ± 0.25
- average standardized uptake value, Spleen ([2]; 5 min after i.v.): 4.10 ± 0.36
- average standardized uptake value, Stomach ([2]; 5 min after i.v.): 1.23 ± 0.15
- average standardized uptake value, Blood ([2]; 10 min after i.v.): 7.53 ± 0.25
- average standardized uptake value, Bone ([2]; 10 min after i.v.): 1.93 ± 0.12
- average standardized uptake value, Kidneys ([2]; 10 min after i.v.): 4.23 ± 0.49
- average standardized uptake value, Liver ([2]; 10 min after i.v.): 3.70 ± 0.61
- average standardized uptake value, Lung ([2]; 10 min after i.v.): 1.47 ± 0.29
- average standardized uptake value, Muscle ([2]; 10 min after i.v.): 0.60 ± 0.10
- average standardized uptake value, Pancreas ([2]; 10 min after i.v.): 2.03 ± 0.15
- average standardized uptake value, S. Intestine ([2]; 10 min after i.v.): 1.57 ± 0.12
- average standardized uptake value, Spleen ([2]; 10 min after i.v.): 4.07 ± 0.47
- average standardized uptake value, Stomach ([2]; 10 min after i.v.): 1.50 ± 0.20
- average standardized uptake value, Blood ([2]; 15 min after i.v.): 7.17 ± 0.35
- average standardized uptake value, Bone ([2]; 15 min after i.v.): 1.83 ± 0.15
- average standardized uptake value, Kidneys ([2]; 15 min after i.v.): 4.03 ± 0.50
- average standardized uptake value, Liver ([2]; 15 min after i.v.): 3.73 ± 0.59
- average standardized uptake value, Lung ([2]; 15 min after i.v.): 1.4 ± 0.17
- average standardized uptake value, Muscle ([2]; 15 min after i.v.): 0.60 ± 0.17
- average standardized uptake value, Pancreas ([2]; 15 min after i.v.): 1.90 ± 0.26
- average standardized uptake value, S. Intestine ([2]; 15 min after i.v.): 1.73 ± 0.12
- average standardized uptake value, Spleen ([2]; 15 min after i.v.): 4.00 ± 0.52
- average standardized uptake value, Stomach ([2]; 15 min after i.v.): 1.23 ± 0.12
- average standardized uptake value, Blood ([2]; 30 min after i.v.): 6.93 ± 0.21
- average standardized uptake value, Bone ([2]; 30 min after i.v.): 1.67 ± 0.15
- average standardized uptake value, Kidneys ([2]; 30 min after i.v.): 3.77 ± 0.29
- average standardized uptake value, Liver ([2]; 30 min after i.v.): 3.57 ± 0.46
- average standardized uptake value, Lung ([2]; 30 min after i.v.): 1.30 ± 0.17
- average standardized uptake value, Muscle ([2]; 30 min after i.v.): 0.57 ± 0.12
- average standardized uptake value, Pancreas ([2]; 30 min after i.v.): 1.67 ± 0.15
- average standardized uptake value, S. Intestine ([2]; 30 min after i.v.): 1.63 ± 0.15
- average standardized uptake value, Spleen ([2]; 30 min after i.v.): 3.90 ± 0.61
- average standardized uptake value, Stomach ([2]; 30 min after i.v.): 1.23 ± 0.06
- average standardized uptake value, Blood ([2]; 45 min after i.v.): 6.70 ± 0.26
- average standardized uptake value, Bone ([2]; 45 min after i.v.): 1.50 ± 0.20
- average standardized uptake value, Kidneys ([2]; 45 min after i.v.): 3.87 ± 0.32
- average standardized uptake value, Liver ([2]; 45 min after i.v.): 3.50 ± 0.52
- average standardized uptake value, Lung ([2]; 45 min after i.v.): 1.30 ± 0.20
- average standardized uptake value, Muscle ([2]; 45 min after i.v.): 0.53 ± 0.06
- average standardized uptake value, Pancreas ([2]; 45 min after i.v.): 1.67 ± 0.15
- average standardized uptake value, S. Intestine ([2]; 45 min after i.v.): 1.63 ± 0.06
- average standardized uptake value, Spleen ([2]; 45 min after i.v.): 3.77 ± 0.57
- average standardized uptake value, Stomach ([2]; 45 min after i.v.): 1.23 ± 0.06
- average standardized uptake value, Blood ([2]; 60 min after i.v.): 6.20 ± 0.17
- average standardized uptake value, Bone ([2]; 60 min after i.v.): 1.37 ± 0.06
- average standardized uptake value, Kidneys ([2]; 60 min after i.v.): 3.60 ± 0.10
- average standardized uptake value, Liver ([2]; 60 min after i.v.): 3.47 ± 0.47
- average standardized uptake value, Lung ([2]; 60 min after i.v.): 1.23 ± 0.06
- average standardized uptake value, Muscle ([2]; 60 min after i.v.): 0.50 ± 0.00
- average standardized uptake value, Pancreas ([2]; 60 min after i.v.): 1.43 ± 0.15
- average standardized uptake value, S. Intestine ([2]; 60 min after i.v.): 1.47 ± 0.15
- average standardized uptake value, Spleen ([2]; 60 min after i.v.): 3.73 ± 0.42
- average standardized uptake value, Stomach ([2]; 60 min after i.v.): 1.10 ± 0.00
- average standardized uptake value, Blood ([2]; 75 min after i.v.): 6.03 ± 0.12
- average standardized uptake value, Bone ([2]; 75 min after i.v.): 1.27 ± 0.12
- average standardized uptake value, Kidneys ([2]; 75 min after i.v.): 3.43 ± 0.15
- average standardized uptake value, Liver ([2]; 75 min after i.v.): 3.43 ± 0.49
- average standardized uptake value, Lung ([2]; 75 min after i.v.): 1.10 ± 0.17
- average standardized uptake value, Muscle ([2]; 75 min after i.v.): 0.47 ± 0.06
- average standardized uptake value, Pancreas ([2]; 75 min after i.v.): 1.37 ± 0.21
- average standardized uptake value, S. Intestine ([2]; 75 min after i.v.): 1.33 ± 0.21
- average standardized uptake value, Spleen ([2]; 75 min after i.v.): 4.93 ± 2.10
- average standardized uptake value, Stomach ([2]; 75 min after i.v.): 1.07 ± 0.12
- average standardized uptake value, Blood ([2]; 90 min after i.v.): 5.97 ± 0.15
- average standardized uptake value, Bone ([2]; 90 min after i.v.): 1.23 ± 0.15
- average standardized uptake value, Kidneys ([2]; 90 min after i.v.): 3.30 ± 0.20
- average standardized uptake value, Liver ([2]; 90 min after i.v.): 3.33 ± 0.58
- average standardized uptake value, Lung ([2]; 90 min after i.v.): 1.07 ± 0.12
- average standardized uptake value, Muscle ([2]; 90 min after i.v.): 0.77 ± 0.64
- average standardized uptake value, Pancreas ([2]; 90 min after i.v.): 1.37 ± 0.31
- average standardized uptake value, S. Intestine ([2]; 90 min after i.v.): 1.17 ± 0.32
- average standardized uptake value, Spleen ([2]; 90 min after i.v.): 3.57 ± 0.55
- average standardized uptake value, Stomach ([2]; 90 min after i.v.): 1.03 ± 0.15
- crossing of the blood-brain barrier ([2]; PET, normal brain tissue negligible accumulation): does not cross the blood-brain barrier
- effective dose [3]: 0.0179±0.0003 mSv/MBq
- mean absorbed radiation dose, bladder wall [3]: 0.0683±0.0090 mSv/MBq
- radiation dose a patient would be exposed to [3]: 2.65 mSv
- whole body absorbed dose [3]: 0.0151±0.0001 mSv/MBq
- reported discomfort, adverse clinical events, toxicity, allergies ([4]; all healthy volunteers and patients): no discomfort or adverse clinical events, no elicited toxicity, and no allergies
- adverse symptoms during the entire procedure and 2 weeks follow-up ([4]; healthy volunteers, mean injected dose 3.77±0.28 mCi): no adverse symptoms were noticed and/or reported

From patent US10258701B2, “Labeled evans blue dye derivative for in vivo serum albumin labeling” (The United States of America, as represented by the …, priority 2015, dated 2019)
